Reference: patent US5149702A, “Cycloheptenopyridine derivatives, process for preparation thereof and antiulcer agents containing the same” (Toa Eiyo Ltd., priority 1990, dated 1992)
Counter-ions that a name gives are not always drawn.

Columns and labels:
[1] = test system: gastric acid secretion; experiment: Inhibitory Effect on Gastric Acid Secretion in Ghosh-Schild Rats; assay type: in vivo, rat (male Wistar-KV); details: 180 minutes after administration
Method: (a) Inhibitory Effect on Gastric Acid Secretion in Ghosh-Schild Rats Each of male Wistar-KV rats was fasted for 24 hours, and a trachea cannula was set up under urethane anesthesia. The abdomen was incised, a double cannula was set up at the forestomach, and then the abdomen was closed. The gastric acid secretion was stimulated by intravenous infusion of […]. Physiological saline was perfused into the stomach through the double cannula at a rate of 1 ml/min., and the effluent was collected every 10 minutes. The acidity of the effluent was measured, using an automatic titrator, by titrating the effluent with 1/100N sodium hydroxide to pH 7. When the acid secretion had reached a stable plateau, the test drug was intravenously administered, and the gastric acid secretion was measured 3 hours after the test drug administration. The antisecretory effect was expressed as percentages of the secretory amount before administration of the test compound. Inhibition percentages at 180 minutes after the administrations are shown.

[2] = test system: gastric lesion induced by ethanol; experiment: Inhibitory Effect on Formation of Gastric Lesion Induced by Ethanol; assay type: in vivo, rat (male Wistar); details: P.O., 30 minutes before 1 ml of 99.5% ethanol orally, lesions 1 hour after ethanol
Method: (b) Inhibitory Effect on Formation of Gastric Lesion Induced by Ethanol
Male Wistar rats weighing 170 to 270 g were used. Each of the rats was placed in separate cages to deprive of food but allowed free access to water for 4 hours. Test drugs or the control drug were orally administered respectively in amounts of 3, 10 and 30 mg/kg, and 30 minutes thereafter 1 ml of 99.5% ethanol were orally administered respectively. One hour after the ethanol administration the rats were sacrificed by cervical vertebrae dislocation, and the stomachs were removed with 8 ml of 1% formalin and put into 1% formalin for 30 minutes to fix the gastric wall. After the fixing, each stomach was opened along the greater curvature, and then after the mucosal surface was washed with tap water, the total length lesions generated at the glandub portion was determined as an ulcer index.
The antiulcer effect by the test drug was expressed by the ED50 value (the dose of the test compound to inhibit the ulcer by 50% to the ulcer index of the non-treated group). Only the solvent was administered to the non-treated group.

COc1ccc2[nH]c([S+]([O-])C3CCCCc4c(OC)ccnc43)nc2c1 (centres unmarked) [Example 63, 9-(5-Methoxybenzimidazole-2-yl)sulfinyl-4-methoxy-2,3-cycloheptenopyridine]
Inhibiting action of gastric acid secretion (rat i.v.), 1 mg/kg [1]: 45.7% | Inhibiting action of gastric acid secretion (rat i.v.), 3 mg/kg [1]: 73.8%

COc1ccnc2c1CCCCC2[S+]([O-])c1nc2ccccc2[nH]1 (centres unmarked) [Example 68, 9-(Benzimidazole-2-yl)sulfinyl-4-methoxy-2,3-cycloheptenopyridine sodium salt]
Inhibiting action of gastric acid secretion (rat i.v.), 1 mg/kg ([1]; sodium salt): 54.9% | ED50 value (dose of the test compound to inhibit the ulcer by 50% to the ulcer index of the non-treated group) ([2]; rat, sodium salt): 10.9 mg/kg

Cc1ccc2[nH]c([S+]([O-])C3CCCCc4cccnc43)nc2c1 (centres unmarked) [Example 75, 9-(5-Methylbenzimidazole-2-yl)sulfinyl-2,3-cycloheptenopyridine]
Inhibiting action of gastric acid secretion (rat i.v.), 3 mg/kg [1]: 42.1%

COc1ccnc2c1CCCCC2[S+]([O-])c1nc2ccccc2[nH]1 (centres unmarked) [Example 77, 9-(Benzimidazole-2-yl)sulfinyl-4-methoxy-2,3-cycloheptenopyridine]
Inhibiting action of gastric acid secretion (rat i.v.), 1 mg/kg [1]: 44.7% | Inhibiting action of gastric acid secretion (rat i.v.), 3 mg/kg [1]: 74.7% | ED50 ([2]; Rattus norvegicus, po, read-out: ED50 value (dose of the test compound to inhibit the ulcer by 50% to the ulcer index of the non-treated group)): 13 mg/kg

COc1ccnc2c1CCCCC2[S+]([O-])c1nc2cc(F)ccc2[nH]1 (centres unmarked) [Example 78, 9-(5-Fluorobenzimidazole-2-yl)sulfinyl-4-methoxy-2,3-cycloheptenopyridine]
Inhibiting action of gastric acid secretion (rat i.v.), 1 mg/kg [1]: 65.4% | Inhibiting action of gastric acid secretion (rat i.v.), 3 mg/kg [1]: 82.9%

COCCOc1ccnc2c1CCCCC2[S+]([O-])c1nc2ccccc2[nH]1 (centres unmarked) [Example 96, 9-(Benzimidazole-2-yl)sulfinyl-4-(2-methoxyethoxy)-2,3-cycloheptenopyridine]
Inhibiting action of gastric acid secretion (rat i.v.), 1 mg/kg [1]: 38.6% | Inhibiting action of gastric acid secretion (rat i.v.), 3 mg/kg [1]: 57.4%

COc1c(C)cnc2c1CCCCC2[S+]([O-])c1nc2ccccc2[nH]1 (centres unmarked) [Example 109, 9-(Benzimidazole-2-yl)sulfinyl-4-methoxy-3-methyl-2,3-cycloheptenopyridine]
Inhibiting action of gastric acid secretion (rat i.v.), 3 mg/kg [1]: 77.6%

COc1ccc2[nH]c([S+]([O-])Cc3ncc(C)c(OC)c3C)nc2c1 (centres unmarked) [Omeprazole, reference compound]
Inhibiting action of gastric acid secretion (rat i.v.), 1 mg/kg [1]: 36.9%
